PMC6688371, “Effect of the inhaled PDE4 inhibitor CHF6001 on biomarkers of inflammation in COPD” (Respiratory Research, 2019)

Tested on: markers of inflammation in blood
Assay: Markers of inflammation in blood (serum/plasma)
Type: in vivo, human
Conditions: Day 32, geometric mean (%CV)
Procedure: Induced sputum was collected pre-dose on Day 1 of each treatment period (for the first treatment period, the sample could be collected up to 10 days prior to Day 1), and 2 h post-dose on Days 20, 26 and 32 (see the Additional file 1 for further detail on sputum and blood analysis methods). Blood samples were taken pre-dose on Day 1, and pre-dose and at 30 min, and 1, 1.5, 2, 3, 4, 6, 8 and 12 h post-dose on Day 32. Other pre-dose assessments on Days 1 and 32 were spirometry (forced expiratory volume in 1 s [FEV1] and forced vital capacity [FVC]), forced oscillometry, and COPD Assessment Test (CAT), with Baseline Dyspnea Index recorded on Day 1 and Transition Dyspnea Index (TDI) on Day 32. Central and peripheral airways mechanics were assessed using forced oscillometry, with the following values determined: inspiratory and expiratory resistance (at 5 and 19 Hz), inspiratory and expiratory reactance, tidal expiratory flow limitation and the percentage of flow limited breaths.
A patient had to have a minimum of one acceptable sputum sample on Day 20, 26 or 32 to be included in the sputum biomarker evaluation for that treatment period, with the available cell count and biomarker data averaged for each patient. The mean change from baseline (pre-dose on Day 1 of each treatment period) was then compared between treatments using an analysis of covariance (ANCOVA) that included treatment, patient and period as fixed effects, and baseline values as covariate. The mean change from baseline to Day 32 for biomarkers in blood were analysed using the same model as for sputum data. All data were log-transformed before analysis, and the results are presented as ratio of geometric means.
Effect of CHF6001 on inflammatory biomarkers – Additional file 1 […]
Analysis of biomarkers and CHF6001 concentration in blood
The levels of inflammatory biomarkers were evaluated from blood collected at 2 h post-dose […]
• Ex-vivo lipopolysaccharide (LPS) stimulated TNFα: 1.5 mL of blood collected into sodium heparin tubes was stimulated with 30 µL of LPS 5 µg/mL, incubated at 37C for 23 h, centrifuged at 2000 g for 10 min at 4C and plasma transferred to the central laboratory at –60 to –90C for analysis.
• Fibrinogen and MMP-3 and -9: Blood was collected into lithium heparin tubes, centrifuged at 2500 g for 15 min at 4C, and plasma transferred to the central […]
• IL-6, -16, and -18, CXCL8, TNFα, MCP-1, MIP 1β, club cell secretory protein 16 (CC16), C-reactive protein (CRP) and surfactant protein D (SP-D): Blood was collected into serum separator tubes and kept at room temperature for 30 –60 minutes to allow clotting. Samples were then centrifuged at 2000 g for 5 min at +4C and serum transferred to the central laboratory at –60 to –90C for analysis.
Levels of biomarkers were assessed as follows:
• Fibrinogen: K-Assay Fibrinogen kit, automated on the Beckman AU640 .
• IL-18, and MMP-3 and -9: PheraSTAR ELISA.
• IL-6, CXCL8, TNFα, MCP-1 and MIP-1β: Meso Scale Diagnostics v -PLEX Plus kit .
• CC16: Biovendor Elisa Kit, Oxford Biosystems.
• CRP: Randox Reagents, automated on the Beckman AU640 .
• IL-16: Meso Scale Diagnostics Sector Imager 6000.
• Serum SP-D: Sandwich Immunoassay, using PheraSTAR Plate Reader .
Validation procedures again followed those outlined for the analysis of biomarkers above. All […]
concentrations of biomarkers in human serum or plasma from regulatory studies.
Blood for the pharmacokinetic analysis was collected pre-dose and at 30 min, and 1, 1.5, 2, 3, 4, 6, 8 and 12 h post-dose on Day 32 of each treatment period. Samples were centrifuged at 2000 g for 15 min at 4C, with the resulting plasma shipped to the central laboratory at –60

CS(=O)(=O)Nc1ccc(C(=O)O[C@@H](Cc2c(Cl)c[n+]([O-])cc2Cl)c2ccc(OC(F)F)c(OCC3CC3)c2)cc1OCC1CC1 [CHF6001]
C-X-C motif chemokine ligand 8 in blood, post-baseline (800 µg BID): 13.565 (36.9)
C-reactive protein in blood, post-baseline (800 µg BID): 3.4462 (167.3) mg/L
Club cell secretory protein 16 in blood, post-baseline (800 µg BID): 4.6249 (67.5) ng/mL
Fibrinogen in blood, post-baseline (800 µg BID): 327.0 (47.5) mg/dL
Interleukin 6 in blood, post-baseline (800 µg BID): 1.8740 (63.9) pg/mL
Interleukin 16 in blood, post-baseline (800 µg BID): 183.95 (33.6) pg/mL
Interleukin 18 in blood, post-baseline (800 µg BID): 236.46 (43.0) pg/mL
Macrophage inflammatory protein 1β in blood, post-baseline (800 µg BID): 107.36 (35.2) pg/mL
Matrix metalloproteinase 3 in blood, post-baseline (800 µg BID): 19.356 (66.9) ng/mL
Matrix metalloproteinase 9 in blood, post-baseline (800 µg BID): 61.69 (88.4) ng/mL
Monocyte chemotactic protein 1 in blood, post-baseline (800 µg BID): 308.2 (33.3) pg/mL
Serum surfactant protein D, post-baseline (800 µg BID): 168.55 (67.6) ng/mL
Tumour necrosis factor α in serum, post-baseline (800 µg BID): 1.9453 (31.8) pg/mL
C-X-C motif chemokine ligand 8 in blood, post-baseline (1600 µg BID): 13.014 (42.2)
C-reactive protein in blood, post-baseline (1600 µg BID): 3.7389 (135.5) mg/L
Club cell secretory protein 16 in blood, post-baseline (1600 µg BID): 4.5701 (75.3) ng/mL
Fibrinogen in blood, post-baseline (1600 µg BID): 367.8 (54.2) mg/dL
Interleukin 6 in blood, post-baseline (1600 µg BID): 1.9386 (88.8) pg/mL
Interleukin 16 in blood, post-baseline (1600 µg BID): 178.08 (30.4) pg/mL
Interleukin 18 in blood, post-baseline (1600 µg BID): 252.43 (40.2) pg/mL
Macrophage inflammatory protein 1β in blood, post-baseline (1600 µg BID): 113.88 (44.2) pg/mL
Matrix metalloproteinase 3 in blood, post-baseline (1600 µg BID): 19.565 (53.9) ng/mL
Matrix metalloproteinase 9 in blood, post-baseline (1600 µg BID): 52.19 (89.7) ng/mL
Monocyte chemotactic protein 1 in blood, post-baseline (1600 µg BID): 323.6 (31.8) pg/mL
Serum surfactant protein D, post-baseline (1600 µg BID): 167.66 (66.1) ng/mL
Tumour necrosis factor α in serum, post-baseline (1600 µg BID): 1.9302 (35.7) pg/mL
